Assay results as given in publication PMC8868285, “Pharmacological Inhibition of Epac1 Averts Ferroptosis Cell Death by Preserving Mitochondrial Integrity” (Antioxidants, 2022).

Experiments:
[1] = system: isolated mitochondria from HT-22 cells; test: High-resolution respirometry (Oroboros) of isolated mitochondria; set-up: species or system mouse
Method: Mitochondria were isolated from harvested HT-22 cells (4–8 × 10^7 cultivated in T75 flasks) using a semi-automated pump-controlled cell rupture system (PCC) (0.71 mL/min) with syringes (SGE, Trajan© Scientific, Ringwood, Australia) attached to a cell homogenizer (Isobiotech, EMBL, Heidelberg, Germany) (bead size of 10 μm suitable for HT-22 cells) and superimposed on a pump (ProSense B.V, Oosterhout, The Netherlands, #NE1000). Collected samples were centrifuged at 800 rpm for 10 min at 4 °C. The supernatant was further centrifuged at 9000× g for 10 min at 4 °C. The resulting pellet was the crude mitochondria. Finally, the mitochondria were suspended in an isolation buffer (HEPES 20 mM, sucrose 250 mM EDTA 3 mM, pH 7.5) for subsequent experiments. The whole procedure was executed on ice.
The protein concentration of isolated mitochondria was determined using the Pierce™ BCA Protein Assay Kit (Pierce™ BCA Protein Assay Kit, Thermo Scientific, Rockford, IL, USA, #23225). Respiration of the isolated mitochondria from HT-22 cells was analyzed using the high-resolution respirometry oxygraph O2K (Oroboros Systems, Innsbruck, Austria). The isolated mitochondria (200 μg) prepared as previously described, were treated with either CE3F4, ESI-05, ethanol, or DMSO as appropriate for 25 min, followed by mitochondrial respiration measurements. Mitochondrial state 1 was determined by continuous stirring at 750 rpm in 1 mL of MiR05 buffer (MgCl2 3 mM, lactobionic acid 60 mM, EGTA 0.5 mM taurine 20 mM, KH2PO4 10 mM, D-Sucrose 110 mM, HEPES 20 mM, BSA, essential fatty acid-free1 g/L, pH adjusted to 7.4). DatLab software (Oroboros Systems, Innsbruck, Austria) was used to record real-time oxygen flux per tissue mass (pmol O2. s^−1 × mg^−1) at 37 °C and to perform oxygen polarography. States were described as, State 2: a non-phosphorylating respiration state which was assessed by addition of complex-I linked substrates, 5 mM pyruvate (Sigma–Aldrich Chemie GmbH, Steinheim, Germany #P-2256), and 2 mM malate (Sigma–Aldrich Chemie GmbH, Steinheim, Germany, #374318); State 3: the oxidative-phosphorylation capacity (OXPHOS) state, of complex-I linked activity or basal respiration was achieved by adding a saturating concentration of 0.8 mM ADP (Sigma–Aldrich Chemie GmbH, Steinheim, Germany, #A5285), this allowed for calculation of ADP-coupled repiration; State 4: Achieved by subsequent addition of oligomycin 0.1 μM/mL (Sigma–Aldrich Chemie GmbH, Steinheim, Germany, #O4876) following state 3, oligomycin blocks the ATP-synthase, thereby inhibiting proton passage; State 3U: Was assessed by incremental steps of 1 μM addition of FCCP—theprotonophore carbonyl cyanide 4-(trifluoromethoxy) phenylhydrazone (Sigma–Aldrich Chemie GmbH, Steinheim, Germany, #C2920), this allowed the calculation of the reserve capacity of the Electron Transport Chain (ETC); Finally, sodium dithionite (DTT, Sigma–Aldrich Chemie GmbH, Steinheim, Germany, #15,795-3) was added to reduce all residual oxygen that was present in the chamber and to calibrate the oxygen content in the chamber. The O2 slope (pmol × (mL/s)) of isolated mitochondria was the oxygen concentration and also the initial derivate of the oxygen concentration—a derivative of oxygen consumption. Measurements were recorded in intervals of 2 s by using a background correction after calibration of the polarographic oxygen sensors.

HT-22 cells = test: Soluble ROS, CM-DCF FACS; format: cell-based, mouse
Method: Soluble ROS was evaluated by CM-DCF fluorescent dye (Invitrogen, Oregon City, OR, USA). CM-DCF passively diffuses into cells, and reacts with glutathione and other thiols following cleavage by intracellular esterases, which in turn exposes the thiol-reactive chloromethyl group. The oxidation that follows results in a fluorescent adduct that is ensnared within the cell. The higher the fluorescence, the more cellular ROS is produced in the cells.

CC1CCc2c(cc(Br)c(F)c2Br)N1C=O (centres unmarked) [CE3F4]
ADP-coupled respiration ([1]; 30 μM CE3F4): no significant differences
ADP-coupled respiration ([1]; 100 µM CE3F4): no significant differences
mitochondrial respiration states (2, 3, 4, 3U) ([1]; CE3F4 30 μM and 100 μM, 25 min): no significant effect on any mitochondrial respiration states
intracellular ROS production (CM-DCF) (HT-22 cells; 100 μM CE3F4 + erastin vs erastin alone, not restored to control levels): significant decrease in intracellular ROS production
total intracellular ROS production (CM-DCF) (HT-22 cells; 100 μM CE3F4 alone): did not influence the amount of total intracellular ROS production
